The source of these data is patent publication US20240197593A1, “CLEANSING COMPOSITION FOR FEMALE INTIMATE HYGIENE” (Conopco, Inc., d/b/a UNILEVER, priority 2021, published 2024).

The series deals with human cadaver skin. The note with it: normalized against time zero reading, average of 6 cells. An excerpt:
Electrical impedance is a proxy indicator of change in skin permeability.
The impedance reading at each cell at different time points was normalized against the time zero-minute reading of that cell. For each test formulation, the impedance reading of each time point is the average normalized value of the 6 repeat cells at that time point. Note: SDS=sodium dodecyl sulphate.

Read-outs that look alike come from different tables or passages of the source.

For the molecule `CCCCCCCCCCCCOS(=O)(=O)[O-].[Na+]` [SDS, sodium dodecyl sulphate], the normalized electrical impedance (time 0 minutes) is listed as 1.00; the normalized electrical impedance (time 5 minutes) is 0.94; the normalized electrical impedance (time 10 minutes) was 0.90; the normalized electrical impedance (time 15 minutes) worked out at 0.86; the normalized electrical impedance (time 30 minutes) stood at 0.76.
